Test results as given in ChEMBL document CHEMBL1201862, “PubChem BioAssay data set” (2004).
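Five concentrations, 48 hours, 96-well plates. Here, GI50 denotes the concentration required for 50% inhibition of growth.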 Activity calls are given as the source filed them. Rule as the data show it: active = GI50 up to about 1.1 µM and inactive = higher.

Tested on: HCC 2998
Experiment: DTP human tumour cell line panel, 48 h

Compound: c1ccc(-c2ccnc3c2ccc2c(-c4ccccc4)ccnc23)cc1
- GI50: 3.53 µM (inactive)
